Results as given in PubChem BioAssay (NCI).
Values joined by “and” are separate entries in the source; they are usually repeats but may differ in a detail not shown here. Identical values can stand only once.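 Briefly, cells in 96-well plates were exposed to five compound concentrations for 48 h, and endpoints were estimated by linear interpolation. GI50 = concentration required for 50% inhibition of growth. TGI: total growth inhibition.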 Numbered stars: 1 amine (or outer) side, 2 acyl side, 3 side chain; on linkers, the order of the positions; unused ones are H or OH. Bridge positions count the residues as written; N and C are the ends. Square brackets hold non-standard residues; d marks the D form. Peptide text beside a SMILES is read from it. I, II: the chains in the order shown. Actinocin(1to9) = Cc1c2oc3c(C)ccc(C(=O)[*:2])c3nc-2c(C(=O)[*:1])c(N)c1=O; NMeV = CN[CH](C(=O)O)C(C)C; Sar = CNCC(=O)O

What was measured:
Test in all cases: NCI tumour cell line growth inhibition, 48 h
[1] = test system: HCT-15 colon
[2] = test system: MDA-MB-435
[3] = test system: NCI-H23 lung
[4] = test system: 786-0 renal
[5] = test system: SN12C renal
[6] = test system: MCF7 breast
[7] = test system: T-47D breast
[8] = test system: COLO 205 colon
[9] = test system: SK-MEL-2 melanoma
[10] = test system: NCI/ADR-RES ovarian
[11] = test system: DU-145 prostate
[12] = test system: SK-MEL-28 melanoma
[13] = test system: ACHN renal
[14] = test system: OVCAR-8 ovarian
[15] = test system: CCRF-CEM leukemia
[16] = test system: HT29 colon
[17] = test system: SF-539 CNS

Row | SMILES | TGI [1] [µM] | TGI [2] [µM] | TGI [3] | TGI [4] | TGI [5] [µM] | TGI [6] [µM] | TGI [7] [µM] | TGI [8] [µM] | TGI [9] [µM] | TGI [10] [µM] | TGI [11] [µM] | TGI [12] [µM] | TGI [13] | TGI [14] [µM] | TGI [15] [µM] | TGI [16] [µM] | TGI [17] [µM] | GI50 [10] [µM]
1 | O=C(O)CCCN=C(C(=NCCCC(=O)O)c1ccccc1)c1ccccc1 | > 100 | > 100 | > 100 µM | > 100 µM | > 100 | > 100 | > 100 | > 100 | > 100 | > 100 | > 100 | > 100 | > 100 µM | > 100 | – | – | – | –
2 | NCCSc1nc(N)c2ncn(C3OC(CO)C(O)C3O)c2n1 (centres undefined) | > 100 | – | > 100 µM | > 100 µM | > 100 | – | – | > 100 | > 100 | – | – | > 100 | > 100 µM | > 100 | > 100 | > 100 | > 100 | –
3 | N#C/C=C\c1ccc(-c2cc(C(F)(F)F)cc(C(F)(F)F)c2)o1 | – | 18.5 | 30.1 µM | 70.5 µM | > 100 | > 100 | – | > 100 | 41 | > 100 | > 100 | > 100 | > 100 µM | 58.5 | > 100 | > 100 | 26.6 | –
4 | O=c1[nH]c(=S)c2[nH]c(=O)n(-c3ccccc3)c2[nH]1 | > 100 | > 100 | > 100 µM | > 100 µM | > 100 | – | – | – | > 100 | > 100 | > 100 | > 100 | > 100 µM | > 100 | – | > 100 | – | –
5 | C#CC1(O)CC(c2ccccc2)N(C)C(c2ccccc2)C1 (centres undefined) | > 100 | – | > 100 µM | > 100 µM | > 100 | – | – | > 100 | > 100 | – | – | > 100 | > 100 µM | > 100 | > 100 | > 100 | > 100 | –
6 | COc1cc(OC)cc(Oc2nc3c(N)cc(C(F)(F)F)cc3nc2-c2ccccc2)c1 | 55.9 | 66.5 | > 100 µM | > 100 µM | – | 99 | 8.91 | 64.3 | 55.5 | > 100 | – | > 100 | > 100 µM | > 100 | > 100 | > 100 | > 100 | –
7 | OCC1(CNc2cc(Cl)ncn2)CCC1 | > 100 | > 100 | > 100 µM | > 100 µM | > 100 | > 100 | – | > 100 | > 100 | > 100 | > 100 | > 100 | > 100 µM | > 100 | > 100 | > 100 | > 100 | –
8 | COC(=O)C(=O)C(C(=O)C(=O)Nc1nc(=S)[nH][nH]1)c1nc2ccc([N+](=O)[O-])cc2[nH]c1=O (centres undefined) | > 100 | > 100 | > 100 µM | > 100 µM | > 100 | > 100 | > 100 | – | > 100 | > 100 | – | > 100 | > 100 µM | > 100 | > 100 | > 100 | > 100 | –
9 | CCC(C)C1NC(=O)C(NC(=O)c2c3nc4c(C(=O)NC5C(=O)NC(C(C)C)C(=O)N6CCCC6C(=O)N(C)CC(=O)N(C)C(C(C)C)C(=O)OC5C)ccc(C)c4oc-3c(C)c(=O)c2N)C(C)OC(=O)C(C(C)C)N(C)C(=O)CN(C)C(=O)C2CCCN2C1=O (centres undefined) (I: TIP[Sar][NMeV] / II: TVP[Sar][NMeV]; ester I:1-I:C, II:1-II:C; linker I:N-II:N via Actinocin(1to9); configuration not given here) | 14.2 | 0.0302 | 0.0553 µM and 0.0126 µM | 0.141 µM and 0.669 µM | 0.498 | > 100 | – | 0.0163 | 0.111 | 3.56 | 0.71 | 0.0409 | 0.0377 µM and 0.0261 µM | – | – | – | 0.107 | 0.0239
10 | CCN1CCC(O)(/C=C/c2ccc(Cl)cc2)C(C(=O)/C=C/c2ccc(Cl)cc2)C1 (centres undefined) | 46.4 | – | 45.6 µM | 43.3 µM | – | – | – | > 100 | > 100 | – | – | 57 | > 100 µM | 61.3 | > 100 | 42.8 | – | –
11 | Cc1cccc(/C=C2\CCCCCC2=O)c1 | > 100 | > 100 | > 100 µM | > 100 µM | > 100 | – | > 100 | > 100 | > 100 | – | > 100 | > 100 | > 100 µM | – | 82.8 | > 100 | – | –
12 | O=C(NC(Cc1ccccc1)P(=O)(O)c1ccccc1)OCc1ccccc1 (centres undefined) | > 100 | > 100 | > 100 µM | > 100 µM | > 100 | > 100 | > 100 | > 100 | – | > 100 | > 100 | > 100 | > 100 µM | > 100 | > 100 | > 100 | – | –
13 | CCCCn1c2c(n(CCCC)c1=[Se])-c1c(n(CCCC)c(=[Se])n1CCCC)S[Se][Se]S2 | 27.9 | > 100 | 70.4 µM | > 72.6 µM | 65 | > 69 | – | 39.4 | 45.9 | 39.5 | 63.4 | > 100 | 30.9 µM | 30.5 | 55.6 | > 64.6 | 42.8 | –
14 | O=c1[nH]c(Br)nc2c(N3CCCCC3)c[nH]c12 | > 100 | – | > 100 µM | > 100 µM | > 100 | – | – | > 100 | > 100 | – | – | > 100 | > 100 µM | > 100 | > 100 | > 100 | > 100 | –
15 | Cc1nc2c(s/c(=N\N)n2-c2ccccc2)c(=O)n1C | > 100 | – | > 100 µM | > 100 µM | > 100 | – | – | > 100 | > 100 | – | – | > 100 | > 100 µM | > 100 | > 100 | > 100 | > 100 | –
16 | O[C@H]1[C@@H]2OC[C@@H](O)[C@H](OCc3ccccc3)[C@@](COCc3ccccc3)(O2)[C@@H]1OCc1ccccc1 | 30.9 | 32.1 | 32.3 µM | 45.4 µM | 27.9 | 39.6 | – | 32.8 | 29.7 | 32 | 35.5 | 27.3 | 30.4 µM | 31 | 42.1 | 28.7 | 31 | –
